Biological target: T1, RIO kinase 2 (RIOK2) (Homo sapiens, UniProt Q9BVS4)
T1 construct: residues 1–329
Assay: co-crystal structure ([…] Å) and ITC
Type: binding

T1 sequence (Q9BVS4 1-329): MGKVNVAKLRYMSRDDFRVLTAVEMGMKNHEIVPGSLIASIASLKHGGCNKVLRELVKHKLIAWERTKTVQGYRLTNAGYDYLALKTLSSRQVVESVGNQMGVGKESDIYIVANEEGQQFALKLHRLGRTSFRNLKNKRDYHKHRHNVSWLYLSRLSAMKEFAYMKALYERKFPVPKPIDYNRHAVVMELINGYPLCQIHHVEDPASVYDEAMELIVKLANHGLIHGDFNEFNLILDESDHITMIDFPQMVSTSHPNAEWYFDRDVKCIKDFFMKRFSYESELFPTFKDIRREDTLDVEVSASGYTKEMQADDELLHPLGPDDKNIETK

Kd: 393 nM
Structure (SMILES): O=C(Cc1ccc2ccccc2c1)Nc1ccccn1 [compound 9]

Source: publication PMC6501643, “Crystal structure of human RIOK2 bound to a specific inhibitor” (Open Biology, 2019)
